According to US20170184612A1, “USE OF LEUKOCYTES AND NOVEL BIOMARKERS IN THE DIAGNOSIS, CONFIRMATION, AND TREATMENT OF A NEUROLOGICAL DISORDER” (The Trustees of Columbia University in the City of New York, priority 2014, published 2017):
Where a SMILES comes first, the peptide text is derived from it. The star is where a group is joined. Cbz = O=C(OCc1ccccc1)*; CH2F = FC*

What was measured:
[1] = system: primary microglial cultures; test: ELISA of IFN-γ released by microglia; assay type: cell-based, mouse; details: primary microglial culture
Experimental: Briefly, for microglial cultures cells dissociated from 5 cortexes of 0-3 days old C57/B16 mice were seeded onto 75 cm^2 cell culture flasks in microglial culture medium (MEM supplemented with calf serum, glucose 45%, penicillin/streptomycin, insulin (25 mg/ml) and 200 mM glutamine) in a 5% CO^2 incubator at 37° C. (Sulzer et al., 2008). Two weeks later, microglia were detached from flasks by mild shaking and plated on 12 well-plates at a density of 45,000-50,000 microglial cells/well. For neuronal cultures, the area of interest was dissected and neurons were dissociated and plated at a density of 80,000/cm′ onto a layer of rat cortical glial cells grown on round glass coverslips and maintained in culture medium without added GDNF (glial cell line-derived neurotrophic factor) in a 5% CO^2 incubator at 37° C. for 5-9 days)(Sulzer et al., 2008). IFN-γ (R&D Systems) was used at a range of non-toxic concentrations for neurons or OT-1 cells (10 μg/ml-100 ng/ml, 72h). […] The concentration of IFN-γ released by microglia (plated as above) was measured by an ELISA kit (eBioscience) that detected the amount of this proinflammatory cytokine in a range of […].

primary VM neurons = test: MHC-I expression of VM neurons after microglial conditioned medium; assay type: cell-based, mouse; details: for cell surface MHC-I presentation by VM neurons: conditioned medium from microglia incubated 72 hours with the substance; for induction of neuronal MHC-I: cultures directly exposed, absence of microglial cells
Experimental: (§1) IFN-γ (R&D Systems) was used at a range of non-toxic concentrations for neurons or OT-1 cells (10 μg/ml-100 ng/ml, 72h). 12-well cell culture plates were pre-treated with LPS (500 ng/ml, Sigma-Aldrich), NM (5 μg/ml), α-syn, Nit-α-syn or Mut-α-syn (200 μg/ml, kindly provided by Peter Lansbury, Harvard University) for 72 h before plating 45,000-50,000 microglial cells/well for an additional 24h. A neutralizing IFN-γ antibody (1:500, PBL InterferonSource) was used to block IFN-γ released from microglia. VM neurons were incubated for 72 h with microglial medium pre-stimulated by LPS, NM, α-syn, Nit-α-syn or Mut-α-syn. As a control experiment, we directly incubated VM neurons with the same compounds in the absence of microglia. In another set of experiments, VM, cortical and striatal primary neurons were incubated for 72 h with microglial medium pre-stimulated by LPS, NM, α-syn. NM was induced in SN cultured neurons by using L-DOPA (Sulzer et al., 2000) (Sigma Aldrich). For foreign protein processing and subsequent antigen presentation, VM cultures were maintained for 7 days in either 1) BSA/serum-free neuronal medium, 2) BSA/serum-free supplemented with OVA (2.5 mg/ml), adding IFN-γ (100 ng/ml) or saline for an additional 72h.
Images were captured using a Leica SP5 microscope system. There was no fluorescence bleed-through of secondary antibodies under the conditions used. MHC-I label observed in the neuronal cultures obtained from wild type mice was absent in neurons from β2m KO mice (FIG. 3A).
(§2) In order to assess the proportion of TH^+ and MAP-2^+ neurons that expressed MHC-I^+, first TH^+ and MAP-2^+ neurons were counted in 24 fields surrounding the border of the well at 20× magnification. The number of TH^+ or MAP-2^+ neurons with intact soma and two or more neurites equal to or greater than the diameter of the cell soma was counted. Then, the fluorescent filter was inserted for each field to determine how many of these neurons also expressed MHC-I.

VM DA (TH+) neurons = test: OT-1 T cell cytotoxicity (killing) assay on VM DA neurons; assay type: cell-based, mouse; details: for neuronal death: SIINFEKL, CTLs and medium conditioned by microglia exposed to the substance; for effect on CTL mediated neuronal death: neurons with IFN-γ, SIINFEKL and OT-1 cells
Experimental: OT-1 CD8^+ cell proliferation was assessed by BrdU incorporation. For OT-1 T cell cytotoxicity assays, DC and VM (from C57BL/6 and 56.129P2-B2mtm1Unc/J mice) cell cultures were incubated with neuronal medium or neuronal medium containing 100 ng/ml of IFN-γ (R&D Systems). Neurons were loaded with or without […] (SEQ ID NO: 9) peptide (1 μM), and, subsequently in vitro activated OT-1 cells were added at a density of 100,000 cells/well and co-incubated for 24 h.
We used the same conditions for VM cell cultures with microglial medium previously stimulated with LPS, NM or α-syn instead of IFN-γ. Neurons were pre-incubated with IFN-γ and […] (SEQ ID NO: 9) peptide as above, and then with: 1) a pan-caspase general inhibitor (Z-VAD-FMK, 20 μM, 24h, IMGENEX); 2) a specific granzyme/perforin inhibitor (concanamycin A, 100 nM, 24h, Sigma Aldrich); 3) a specific Fas/FasL antagonist (Kp7-6, 1 mM, 24h, EMD Biosciences) and 4) concanamycin A and Kp7-6 together. OT-1 cells were then added to the culture (100,000 cells/well) and maintained for 24 h.
Following immunocytochemical staining of VM neurons, we assessed the proportion of surviving DA (TH^+) and non-DA cells (MAP-2^+, TH^−). Total numbers of TH^+ and MAP-2^+ neurons were counted in 24 fields surrounding the border of the well at 20× magnification. The number of surviving TH+ neurons with an intact soma and two or more neurites equal to or greater than the diameter of the cell soma was counted and normalized to the number in untreated cultures.

[2] = system: peripheral blood mononuclear cells (PBMC), T cells; test: ELISpot assay, IFNg and IL-5 reactivity combined, T cell response to α-syn epitopes; assay type: cell-based, human; details: flag 1/0 per peptide
Experimental: Blood from age matched controls and PD patients were obtained and mononuclear cells were isolated by gradient centrifugation.
Release of the cytokines gamma-interferon, which measures activation of CD4+ and/or CD8+ T cells, and the interleukin, IL-5, which measures activation of CD4+ T cells was measured by ELISpot assay. […] After 22 hours of stimulation at 37 C, the cells were removed and release of cytokines was measured by colorimetric detection of spot-forming cells (SFC). Confirmed release of cytokine is determined by the presence of a minimum of 20 SFC per million cells.
The binding algorithms in SubAim 1 predict how well the peptides would bind to MHC if present, but not if they are present in patients. To determine this, the presence of T cell response against the candidate antigens by patient blood-derived peripheral blood mononuclear cells (PBMC) is assessed by ELISPOT assays upon stimulation with the peptides. This assay detects and quantifies cytokine release (in this case, IFNγ and IL-5) from specific activated T cells.
Data were obtained from blood samples (25 ml) from 44 PD patients and 24 age-matched controls. The experiments were conducted blindly. PBMCs from these samples were isolated and exposed to pools comprising the 122 candidate class I and class II antigens and phosphorylated S129 epitopes generated in Subaim 1. For the PBMCs responsive to the pooled peptides, the response was then deconvoluted to identify individual epitopes.
PMBC fractions are recovered by standard methods with Ficoll gradient and T cells expansion (Oseroff et al., 2010). The methods for the analysis of T cell reactions and measurement of cytokines production using the enzyme-linked immunosorbent spot (ELISPOT) assay are published in analogous experiments to discover antigens in multiple sclerosis (Lolli et al., 2013) and in hay fever allergens (Oseroff et al., 2010). T cell responses are determined by measuring IFNγ and IL-5 release by ELISPOT. Statistical analysis of differences between populations is expected to be non-parametric and analyzed with the U-Mann-Whitney test. If there were a normal distribution of response, which is a priori unlikely as some patients have no T cell response, with an SD=1, 8 patients per group would be required to provide a p>90% that the study detect a >2 fold difference at a two-sided 0.05 significance level.

[3] = system: peripheral blood mononuclear cells (PBMC), T cells; test: ELISpot assay, IL-5 release (SFC) after stimulation with a-synuclein epitope pools; assay type: cell-based, human; details: for IL-g Peptide + (donors positive to the peptide): of donors tested (peptide); for IL-g Response Frequency / IL-g Total SFC: single peptide
Summary of the method: (§3)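 Ficoll-isolated PBMC, PD vs age-matched controls, blinded; peptide pools (122 candidates + pS129 epitopes), 22 h, 37 C. Positive pools deconvoluted.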

[4] = system: peripheral blood mononuclear cells (PBMC), T cells; test: ELISpot assay, gamma-interferon release (SFC) after stimulation with a-synuclein epitope pools; assay type: cell-based, human; details: for IFNg Peptide + (donors positive to the peptide): of donors tested (peptide); for IFNg Response Frequency / IFNg Total SFC: single peptide
Summary of the method: as §3

[5] = system: SN murine neuronal cultures; test: NM and MHC-I induction by L-DOPA in SN neuronal cultures; assay type: cell-based, mouse
Source text: To enhance cytosolic DA, the DA precursor, L-DOPA, was used, which is accumulated by amino acid transport and converted into DA in the cytosol. Exposure to high levels of L-DOPA can produce NM in both catecholaminergic and nominally non-catecholaminergic cells (Sulzer et al., 2000). […] SN murine neuronal cultures were exposed to L-DOPA under conditions that substantially increase cytosolic DA as measured by intracellular patch electrochemistry (Mosharov et al., 2009) and promote NM production as observed by brightfield microscopy (Sulzer et al., 2000).
as §1, with “For foreign protein processing and subsequent antigen presentation, VM cultures were maintained for 7 days in either 1) BSA/serum-free neuronal medium, 2) BSA/serum-free supplemented with OVA (2.5 mg/ml), adding IFN-γ (100 ng/ml) or saline for an additional 72h.” left out
Images were captured using a Leica SP5 microscope system. There was no fluorescence bleed-through of secondary antibodies under the conditions used. […]
as §2, with “Then, the fluorescent filter was inserted for each field to determine how many of these neurons also expressed MHC-I.” left out

Compound: lipopolysaccharide [LPS, reference compound]
- IFN-γ secretion, in words [1]: induced IFN-γ secretion
- cell surface MHC-I presentation by VM neurons (primary VM neurons): elicited cell surface MHC-I presentation
- induction of neuronal MHC-I (primary VM neurons): no induction
- neuronal death (VM DA (TH+) neurons): caused extensive neuronal death

Compound: α-syn: alpha synuclein protein, wild type
- cell surface MHC-I presentation by VM neurons (primary VM neurons): elicited cell surface MHC-I presentation
- induction of neuronal MHC-I (primary VM neurons): no induction
- neuronal death (VM DA (TH+) neurons): caused extensive neuronal death

Compound: COC(=O)C[C@H](NC(=O)[C@H](C)NC(=O)[C@@H](NC(=O)OCc1ccccc1)C(C)C)C(=O)CF [Z-VAD-FMK] (Cbz-Val-Ala-Asp(OMe)-CH2F)
- effect on CTL mediated neuronal death (VM DA (TH+) neurons): protect against CTL mediated neuronal death

Compound: 3521.0012 (KTKQGVAEA; listed as Homo sapiens)
- Peptides + in Patients & Normals [2]: 0
- IL-g Peptide + (donors positive to the peptide) ([3]; Normals Summary): 0
- IL-g Response Frequency ([3]; Normals Summary): 0%
- IL-g Total SFC ([3]; Normals Summary): 0 SFC
- IL-g Peptide + (donors positive to the peptide) ([3]; Patients Summary, PD patients): 0
- IL-g Response Frequency ([3]; Patients Summary, PD patients): 0%
- IL-g Total SFC ([3]; Patients Summary, PD patients): 0 SFC
- IFNg Peptide + (donors positive to the peptide) ([4]; Normals Summary): 0
- IFNg Response Frequency ([4]; Normals Summary): 0%
- IFNg Total SFC ([4]; Normals Summary): 0 SFC
- IFNg Peptide + (donors positive to the peptide) ([4]; Patients Summary, PD patients): 0
- IFNg Response Frequency ([4]; Patients Summary, PD patients): 0%
- IFNg Total SFC ([4]; Patients Summary, PD patients): 0 SFC

Compound: N[C@@H](Cc1ccc(O)c(O)c1)C(=O)O [L-DOPA, L-dihydroxyphenylalanine]
- neurons in which NM was induced [5]: 40%
- TH+ neurons with MHC-I display ([5]; TH+ neurons): ~10%
- TH− neurons with MHC-I display ([5]; TH− neurons): ~7%

Compound: C/C=C/[C@H]1O[C@@](O)([C@@H](C)[C@H](O)[C@H](C)[C@H]2OC(=O)/C(OC)=C/C(C)=C/[C@@H](C)[C@@H](O)[C@@H](CC)[C@@H](O)[C@H](C)C/C(C)=C/C=C/[C@@H]2OC)C[C@@H](O[C@H]2C[C@@H](O)[C@H](OC(N)=O)[C@@H](C)O2)[C@@H]1C [concanamycin A]
- effect on CTL mediated neuronal death (VM DA (TH+) neurons): protect against CTL mediated neuronal death
